According to ChEMBL document CHEMBL1157539, “Thousands of chemical starting points for antimalarial lead identification” (Nature, 2010):

system: Plasmodium falciparum; assay: GSK_TCMDC: Inhibition of Plasmodium falciparum 3D7 in whole erythrocytes, using parasite LDH activity as an index of growth.; assay type: functional, organism-based; details: Plasmodium falciparum, 3D7

Compound	XC50 [nM]
CCCCCc1cc(O)c2c(c1)OC(C)(C)CC2C1=CCN(Cc2cnc3ccccc3c2)CC1 (configuration not stated)	276
CC1(C)NC(N)=NC(=N)N1OCCSCCON1C(=N)N=C(N)NC1(C)C	50.6
CCN1CCN(c2cc(C)c3cc(NC(=O)c4cccc([N+](=O)[O-])c4)ccc3n2)CC1	524
CCN(CC)S(=O)(=O)c1ccc(CCOCCCCCNCC(O)c2cc(Cl)c(N)c(Cl)c2)s1 (configuration not stated)	858
COc1cccc(C(=O)C2CC2CN(C)CCC(O)c2ccc(Cl)c(Cl)c2)c1 (configuration not stated)	756
Cc1cccc(C)c1N1CCN(C2CCC(NC(=O)/C=C/c3ccccc3)CC2)CC1 (configuration not stated)	1180
COc1ccc(NC(=O)/C=C/c2ccc(Cl)c(Cl)c2)cc1N1CCN(C)CC1	980
O=C1NC(c2ccccc2)C2(CCN(CC(O)COc3cccc4ncccc34)CC2)O1 (configuration not stated)	743
O=C(Nc1cc(Cl)ccc1-n1cncn1)C1(c2ccccc2)CC1	455
CC1(C)C2C=C(CN3CCC(NC(=O)Nc4ccc(Cl)c(Cl)c4)CC3)C1CC2 (configuration not stated)	761
Cn1cnc(CCNC(=O)c2ccc(-c3ccc(-c4nc5cc(F)ccc5[nH]4)cc3)cc2)c1	866
c1csc(-c2nc(N3CCCC3)ncc2-c2ccsc2)n1	210
N#Cc1ccc2[nH]cc(CN3CCC4(CC3)CN(CCNCc3ccccc3)C(=O)O4)c2c1	1160
COc1ccc2cc(-c3nc(-c4c(Cl)cccc4Cl)[nH]c3-c3ccnc(NCCCN4CCCCC4C)c3)ccc2c1 (configuration not stated)	948
Cc1[nH]c(C)c(-c2ccc(OCc3ccccc3)cc2)c(=O)c1Br	280
CNS(=O)(=O)c1ccc2c(c1)nc(C1CCN(CC3CCC(NC(=O)/C=C/c4ccc(Cl)c(Cl)c4)CC3)CC1)n2C (configuration not stated)	670
Cc1nc(NC2=NCN(CCCN3CCOCC3)CN2)nc2c(C)cccc12	1130
CN1CCN(c2ccnc3ccc(NC(=O)Nc4ccc(-c5ccncc5)c(C#N)c4)cc23)CC1	158
CCCCOc1cc2c(cc1OCC)C(C=Cc1ccc(Cl)cc1Cl)=NCC2	403
Cc1cc(C2CCN(CCCCNC(=O)c3ccc(NC(=O)c4ccc(Cl)cc4)cc3)CC2)c(C)cc1OCc1cccnc1	603
CN(C)Cc1cccc(-c2cc3c(-c4cnn(C)c4)c(Cl)cnc3[nH]2)c1	905
Cc1cccc2nc(-c3ccc(-c4cccc(C(=O)N5CCCCC5C(C)O)c4)s3)[nH]c12 (configuration not stated)	636
Cc1cccc2nc(-c3cccc(-c4cccc(NC(=O)c5cnccc5C(F)(F)F)c4)c3)[nH]c12	659
Cc1cccc2nc(-c3cccc(-c4cccc(NC(=O)Nc5ccc(Cl)cc5)c4)c3)[nH]c12	236
Oc1cc(NCc2ccccc2NCc2ccc(Cl)c(Cl)c2)nc2ccccc12	842

Compound	XC50 [nM]
CCN1CCN(c2cc(C)c3cc(NC(=O)c4ccc(OC)c([N+](=O)[O-])c4)ccc3n2)CC1	553
Cc1cc(-c2nc3cncc(-c4cccc(CN5CCCC5Cc5cccnc5)c4)c3n2C)nn1C (configuration not stated)	132
O=[N+]([O-])c1cccc(CNC2CCN(Cc3ccc4ccccc4c3)CC2)c1	764
CCN(CC)CCN(Cc1ccc(-c2ccc(C(F)(F)F)cc2)cc1)C(=O)Cn1c(CCc2cccc(F)c2F)nc(=O)c2ccc(F)cc21	360
Fc1cccc(Cl)c1-c1nc(NCCC(c2ccccc2)c2ccccc2)no1	546
CCN1CCC(N2CCC(n3c(C)nc4cc(C(F)(F)F)ccc43)CC2)CC1	1020
c1ccc2c(c1)ncc1c3ccccc3[nH]c21	866
COc1ccccc1C1CCN(C2CCC(NC(=O)/C=C/c3ccc(F)c(F)c3)CC2)CC1 (configuration not stated)	1320
Cc1cc(NCCC(=O)Nc2ccccc2)nc(NCCc2cccnc2)n1	1240
N#Cc1ccc(N/C(=N\c2ccc(-c3ccccc3)cc2)NCCc2c[nH]c3ccccc23)c(O)c1	336
Cc1cc(=O)c(-c2ccc(Oc3ccc(Cl)cc3Cl)cc2)c(C)[nH]1	841
CC(=O)Nc1ccc(C(=O)Nc2cccc(-c3ccc(-c4nc5cc(F)ccc5[nH]4)cc3)c2)cn1	174
c1cc(-c2nc3ccccc3[nH]2)nc(-c2nc3ccccc3[nH]2)c1	1120
CC(=O)Nc1nc(C(=O)Nc2ccc(-c3ccc(-c4nc5cccc(C)c5[nH]4)cc3)cc2)cs1	182
Cc1cccc2nc(-c3cccc(-c4cccc(NC(=O)C(C)CN5CCN(C)CC5)c4)c3)[nH]c12 (configuration not stated)	537
COc1ccc2nccc(NC(=O)N3CCC(NCc4cc5ccccc5[nH]4)CC3)c2n1	556
CCNc1cc(C(=O)N[C@@H](Cc2ccccc2)[C@H](O)CNC2(CC(C)C)CC2)cc(N2CCCCS2(=O)=O)c1	1020
O=S(=O)(NCCN1CCCC1)c1ccc(-c2cccc(CNCc3ccccc3)c2)s1	806
CCCc1c(C(=O)NC2CCC(CN3CCC(c4c[nH]c5ccccc45)CC3)CC2)cnn1-c1ccccc1 (configuration not stated)	1790
O=C(NCCCCN1CCC(c2cccc3ccccc23)CC1)c1ccc(-c2ccc(C(F)(F)F)cn2)cc1	867
Cc1ccccc1C1CCN(C2CCC(NC(=O)/C=C/c3cc(F)ccc3F)CC2)CC1 (configuration not stated)	1040
CC(CCCCOCCc1ccccc1)NCC(O)c1cc(Cl)c(N)c(Cl)c1 (configuration not stated)	788
Oc1ccccc1CNCc1ccc(-c2cnc(N3CCCC(c4ccccc4)C3)nc2)cc1 (configuration not stated)	689
COc1ccccc1C1CCN(C2CCC(NC(=O)/C=C/c3cc(F)c(F)cc3F)CC2)CC1 (configuration not stated)	1600
O=C(C=Cc1cccc(F)c1)NC1CCC(CCN2CCc3ccc(-c4cnccn4)cc3CC2)CC1 (configuration not stated)	454

Compound	XC50 [nM]
COc1ccc2nccc([C@@H](O)CN3CCC(NCc4ccc(OC)c(NC=O)c4)CC3)c2c1	753
Cc1cc(OCCCN2CCCCC2)ccc1NC(=O)COc1ccc(Cl)cc1C(=O)c1cc(C#N)cc(C(F)(F)F)c1	1030
c1cc(C2=NC3CCCCC3N2)ccc1OCCCCCOc1ccc(C2=NC3CCCCC3N2)cc1 (configuration not stated)	228
O=C(Nc1cccc(-c2ccc(-c3nc4ccccc4[nH]3)cc2)c1)Nc1ccc2c(c1)OCO2	671
CN(C)CCCc1cc(NC(=O)Nc2cccc(Cl)c2Cl)ccc1I	539
COc1ccc(-c2nc(-c3ccc([N+](=O)[O-])cc3)no2)cc1OC	409
CCCC(=O)NC(c1ccc(C(C)C)cc1)c1ccc2cccnc2c1O (configuration not stated)	934
COC(=O)c1cccc(CNCc2ccc(-c3ccc(-c4nc5cc(F)ccc5[nH]4)s3)cc2)c1	588
O=C(O[C@H]1CN[C@H](C#Cc2cc3c(Nc4ccc(OCc5cccc(F)c5)c(Cl)c4)ncnc3s2)C1)N1CCCC1	707
COc1ccc(CCN(C)CCCN2CCC(NC(=O)c3cccc4c(=O)c5ccccc5[nH]c34)CC2)cc1OC	695
CCC(CCON1C(N)=NC(N)=NC1(C)C)c1ccc(Cl)cc1 (configuration not stated)	3.2
COc1ccc(CNC(=O)c2cnc3c(O)cccc3c2Nc2cccc(NC(=O)c3ccc(F)cc3)c2)cc1	996
CCC1N=C(N)N=C(N)N1OCc1cccc2ccccc12 (configuration not stated)	3.2
Cc1cccc(CNc2nc(C)cc(N[C@@H](Cc3ccccc3)C(=O)NCc3cccc(F)c3)n2)c1	1040
CN1CCN(CC(=O)Nc2cccc(-c3ccc(-c4nc5cc(F)ccc5[nH]4)cc3)c2)CC1	703
CC(Cc1ccc(OCc2ccccc2)c(Cl)c1)NCC(O)c1cccc(C(F)(F)F)c1 (configuration not stated)	940
CCOC(=O)[C@H](Cc1cc([N+](=O)[O-])c(Oc2ccc(OC)c(Cc3ccc(OC)c(C(C)C)c3)c2)c([N+](=O)[O-])c1)NC(=O)C(F)(F)F	984
Cc1csc(-c2nonc2NC(=O)COc2ccccc2C(C)C)n1	551
CN(CCCCNC(=O)c1ccc(-c2ccccc2)cc1)C1CCc2c(O)cccc2C1 (configuration not stated)	724
CCn1c(Cc2ccccc2)nnc1Sc1ccc([N+](=O)[O-])c(C#N)c1	1010
CCCCCCCN1CC[C@@H](CCCc2ccnc3ccc(OCC4CCCNC4)cc23)[C@@H](CC)C1 (some centres not stated)	625
N=C(N)NN=CC(=O)Nc1cc([N+](=O)[O-])cc([N+](=O)[O-])c1	628
CCc1ccc(NC(=O)c2ccc(CN3CCCN(Cc4ccc(C)s4)CC3)cc2)cc1	1150
CC(C)CCOc1ccc(NC(=O)c2cccs2)cc1	514
Fc1ccccc1C=NN=c1cc[nH]c2ccc(C(F)(F)F)cc12	871

Compound	XC50 [nM]
CCN(CC)CCCC(C)N=c1cc(C=Cc2ccc([N+](=O)[O-])cc2)[nH]c2ccc(OC)cc12 (configuration not stated)	574
COc1ccc(NC(=O)N2CCCN(CCCCCNC(=O)/C=C/c3ccc(C(F)(F)F)cc3)CC2)cc1Cl	980
COc1ccc(-c2ccc(NC(=O)c3cccc(Cl)c3)cc2)cc1CN1CCC(O)CC1	712
COc1cccc2c(Oc3ccccc3C)ccnc12	1230
O=C(Nc1ccc(-n2ccc(C(F)(F)F)n2)cc1)c1cccs1	1070
N=C(NC1CC1)c1ccc2[nH]c(CCCCCc3nc4cc(C(=N)NC5CC5)ccc4[nH]3)nc2c1	934
Cc1ccc2[nH]c(C)cc(=NN=Cc3cccc(Cl)c3)c2c1	739
Cc1cc(NC2CCN(CC3CCCCC3)C2)nc(Nc2ccc(Cl)cc2)n1 (configuration not stated)	404
NC(=O)c1cccc(C(=O)Nc2cccc(-c3cccc(-c4nc5ccccc5[nH]4)c3)c2)c1	548
COc1cc2c(cc1OC)C(c1ccc(Br)cc1)CN(C)CC2 (configuration not stated)	943
COCCN1CCC(C(=O)NCC(C)(C)c2nc(-c3ccc(Br)c(O)c3)c(-c3ccncc3)[nH]2)CC1	911
Cn1nc(C(F)(F)F)c(-c2ccc(F)cc2)c1NC(=O)Nc1ccc(F)cc1F	765
CCCCCN1CCCC(CNS(=O)(=O)c2ccc(C(=O)Nc3ccc(C(F)(F)F)cc3)cc2)C1 (configuration not stated)	916
CCc1cc(NC(=O)Nc2ccnc3ccccc23)ccc1OC	138
CC1(C)CC2CC(C)(CN2C(=O)c2cc(C(C)(C)C)nn2Cc2ccccc2)C1 (configuration not stated)	1090
O=C(Nc1cccc2ccccc12)N1CCC(NS(=O)(=O)c2cccc(C(F)(F)F)c2)CC1	913
CN(C)c1ccc(-c2csc(C(=O)NC3CCCCN(Cc4ccc(C(C)(C)C)cc4)C3)c2)cc1 (configuration not stated)	1110
CCCCCCc1cc(Oc2c(I)cc(C[C@H](N)C(=O)O)cc2I)ccc1O	906
CC(C)c1ccc(-c2noc(SCC(=O)N3CCCCC3C)n2)cc1 (configuration not stated)	1670
Cc1ccc(C2CCN(CCCCNC(=O)c3ccc(-c4ccc(C#N)cc4)cc3)CC2)c(O)c1	292
CCn1c(-c2nonc2N)nc2c(-c3ccccc3)ncc(OCCCNCCCN3CCOCC3)c21	669
O=C(Nc1ccc(-c2nc3cc4ccccc4cc3[nH]2)cc1)c1cccc(Br)c1	363
